One data set can be described thus: in vivo. Particulars: BALB/c, mouse, in vivo, ip.
For data set [1] the following is noted: 10 mg/mL cpd in 20% DMSO/saline.
For data set [2], the system named is MDA-MB-231 (breast cancer). Kind of data set: MTT antiproliferative assay, MDA-MB-231. The data set is classed as cell-based. Particulars: Homo sapiens, MDA-MB-231; MTT, 48 h; read-out: Antiproliferative Activity GI50, Breast MDA-MB-231. Background: Tetrazolium dyes change colour on reduction, which living cells bring about.
The test system of another data set is COLO-205 (colon cancer). As to the kind of experiment: MTT antiproliferative assay, COLO-205. In kind it is cell-based. Particulars: Homo sapiens, COLO 205; MTT, 48 h; read-out: Antiproliferative Activity GI50, Colon COLO-205.
Another data set deals with BALB/c mice. Kind of data set: in vivo. Particulars: BALB/c, mouse, in vivo, ip, 2 weeks.
The next data set relates to DU-145 (prostate cancer). As to the kind of experiment: MTT antiproliferative assay, DU-145. In kind it is cell-based. Particulars: Homo sapiens, DU-145; MTT, 48 h; read-out: Antiproliferative Activity GI50, Prostate DU-145.
For the next data set, the system named is SKOV-3 (ovarian). Kind of data set: MTT antiproliferative assay, SKOV-3. In kind it is cell-based. Particulars: Homo sapiens, SK-OV-3; MTT, 48 h; read-out: Antiproliferative Activity GI50, Ovarian SKOV-3.

Turning to `CSCC[C@H]1NC(=O)CC(O)/C=C/CCSSC[C@H](C(=O)O)NC1=O` (stereo partly drawn) [TDF3, (4S,7R,12E)-11-hydroxy-7-[2-(methylsulfanyl)ethyl]-6,9-dioxo-1,2-dithia-5,8-diazacyclopentadec-12-ene-4-carboxylic acid], in “in vivo”, the MTD at 2 weeks was over 200 mg/kg. Moreover, the Solubility result in data set [1] is recorded as “Soluble”.
One may read the GI50 as the concentration that inhibits growth by half. Turning to `COC(=O)[C@H]1CSSCC/C=C/C(O)CC(=O)N[C@H](CCSC)C(=O)N1` (stereo partly drawn) [TDF3m, Methyl (4S,7R,12E)-11-hydroxy-7-[2-(methylsulfanyl)ethyl]-6,9-dioxo-1,2-dithia-5,8-diazacyclopentadec-12-ene-4-carboxylate], the GI50 in data set [2] worked out at 600 nM; with COLO-205 (colon cancer) it was 900 nM; in the data set with DU-145 (prostate cancer), 300 nM; in the data set on SKOV-3 (ovarian), 500 nM. This molecule also had an MTD at 2 weeks in “in vivo” of over 200 mg/kg. Further, in the data set on BALB/c mice, the “MTD (toxicity in healthy BALB/c mice)” value was over 200 mg/kg. The Solubility result in data set [1] was “Partially soluble”.

The record behind these values is patent US11149062B2, “HDAC inhibitors and methods of treatment using the same” (UWM Research Foundation, Inc., priority 2015, dated 2021).
